Among the data in ChEMBL document CHEMBL5442219 are inhibition values, retold here.

The term inhibition denotes the drop in the measured response relative to a control, in per cent.

Common to all, as to details: Compound concentration 10 µM
The target in test [1] is Mu-type opioid receptor (Homo sapiens) (UniProt P35372).
Description: PDSP Primary Binding target: OPRM1 - Compounds are tested at 10 uM concentration, plate are incubated at room temperature in the dark for 90 minutes. Reaction are stopped by vacuum filtration onto 0.3% polyethyleneimine soaked filter mats using Filtermate harvester. Scintilation cocktail is then melted onto microwave-dried filters on a hot plate and the radio activity is counted in Microbia counter.
The target of test [2] is D(2) dopamine receptor (Homo sapiens) (UniProt P14416).
Description: PDSP Primary Binding target: DRD2 - Compounds are tested at 10 uM concentration, plate are incubated at room temperature in the dark for 90 minutes. Reaction are stopped by vacuum filtration onto 0.3% polyethyleneimine soaked filter mats using Filtermate harvester. Scintilation cocktail is then melted onto microwave-dried filters on a hot plate and the radio activity is counted in Microbia counter.
The target in test [3] is 5-hydroxytryptamine receptor 1B (Homo sapiens) (UniProt P28222).
Description: PDSP Primary Binding target: HTR1B - Compounds are tested at 10 uM concentration, plate are incubated at room temperature in the dark for 90 minutes. Reaction are stopped by vacuum filtration onto 0.3% polyethyleneimine soaked filter mats using Filtermate harvester. Scintilation cocktail is then melted onto microwave-dried filters on a hot plate and the radio activity is counted in Microbia counter.
For test [4], the target named is Sigma intracellular receptor 2 (Homo sapiens) (UniProt Q5BJF2).
Sigma intracellular receptor 2 (Homo sapiens), sequence (Q5BJF2 whole entry): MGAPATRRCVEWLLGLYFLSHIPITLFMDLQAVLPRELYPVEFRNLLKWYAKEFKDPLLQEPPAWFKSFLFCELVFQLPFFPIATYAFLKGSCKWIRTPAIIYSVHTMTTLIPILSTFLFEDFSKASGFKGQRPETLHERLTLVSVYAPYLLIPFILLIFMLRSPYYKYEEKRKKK
Description: PDSP Primary Binding target: TMEM97 - Compounds are tested at 10 uM concentration, plate are incubated at room temperature in the dark for 90 minutes. Reaction are stopped by vacuum filtration onto 0.3% polyethyleneimine soaked filter mats using Filtermate harvester. Scintilation cocktail is then melted onto microwave-dried filters on a hot plate and the radio activity is counted in Microbia counter.
The target of test [5] is Beta-2 adrenergic receptor (Homo sapiens) (UniProt P07550).
Beta-2 adrenergic receptor (Homo sapiens), sequence (P07550 whole entry, looked up): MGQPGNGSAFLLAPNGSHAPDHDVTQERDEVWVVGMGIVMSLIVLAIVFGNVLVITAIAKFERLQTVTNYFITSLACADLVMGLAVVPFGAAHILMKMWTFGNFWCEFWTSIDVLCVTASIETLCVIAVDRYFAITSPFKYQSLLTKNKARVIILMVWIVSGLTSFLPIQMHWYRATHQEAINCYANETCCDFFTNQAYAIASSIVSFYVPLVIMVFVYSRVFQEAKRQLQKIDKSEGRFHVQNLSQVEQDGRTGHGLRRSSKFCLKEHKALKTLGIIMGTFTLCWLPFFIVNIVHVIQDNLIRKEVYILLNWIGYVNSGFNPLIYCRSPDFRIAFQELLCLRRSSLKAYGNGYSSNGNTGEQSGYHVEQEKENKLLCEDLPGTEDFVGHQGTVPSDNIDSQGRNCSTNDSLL
Description: PDSP Primary Binding target: ADRB2 - Compounds are tested at 10 uM concentration, plate are incubated at room temperature in the dark for 90 minutes. Reaction are stopped by vacuum filtration onto 0.3% polyethyleneimine soaked filter mats using Filtermate harvester. Scintilation cocktail is then melted onto microwave-dried filters on a hot plate and the radio activity is counted in Microbia counter.
In test [6] the target is 5-hydroxytryptamine receptor 2A (Homo sapiens) (UniProt P28223).
5-hydroxytryptamine receptor 2A (Homo sapiens), sequence (P28223 whole entry): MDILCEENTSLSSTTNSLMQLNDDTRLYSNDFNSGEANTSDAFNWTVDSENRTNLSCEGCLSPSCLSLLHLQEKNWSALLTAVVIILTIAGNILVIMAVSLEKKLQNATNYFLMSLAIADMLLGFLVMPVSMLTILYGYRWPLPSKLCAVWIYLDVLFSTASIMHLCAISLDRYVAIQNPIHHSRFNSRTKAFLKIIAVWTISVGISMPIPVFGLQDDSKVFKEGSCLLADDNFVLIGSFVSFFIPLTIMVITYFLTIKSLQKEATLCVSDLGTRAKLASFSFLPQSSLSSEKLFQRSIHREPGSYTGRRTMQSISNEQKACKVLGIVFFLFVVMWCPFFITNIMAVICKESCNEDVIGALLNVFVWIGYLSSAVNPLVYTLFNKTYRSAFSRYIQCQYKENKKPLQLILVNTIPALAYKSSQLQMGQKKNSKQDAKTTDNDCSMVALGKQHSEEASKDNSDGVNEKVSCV
Description: PDSP Primary Binding target: HTR2A - Compounds are tested at 10 uM concentration, plate are incubated at room temperature in the dark for 90 minutes. Reaction are stopped by vacuum filtration onto 0.3% polyethyleneimine soaked filter mats using Filtermate harvester. Scintilation cocktail is then melted onto microwave-dried filters on a hot plate and the radio activity is counted in Microbia counter.
Test [7] addresses T1, Alpha-2B adrenergic receptor (Homo sapiens) (UniProt P18089).
T1 sequence (whole entry): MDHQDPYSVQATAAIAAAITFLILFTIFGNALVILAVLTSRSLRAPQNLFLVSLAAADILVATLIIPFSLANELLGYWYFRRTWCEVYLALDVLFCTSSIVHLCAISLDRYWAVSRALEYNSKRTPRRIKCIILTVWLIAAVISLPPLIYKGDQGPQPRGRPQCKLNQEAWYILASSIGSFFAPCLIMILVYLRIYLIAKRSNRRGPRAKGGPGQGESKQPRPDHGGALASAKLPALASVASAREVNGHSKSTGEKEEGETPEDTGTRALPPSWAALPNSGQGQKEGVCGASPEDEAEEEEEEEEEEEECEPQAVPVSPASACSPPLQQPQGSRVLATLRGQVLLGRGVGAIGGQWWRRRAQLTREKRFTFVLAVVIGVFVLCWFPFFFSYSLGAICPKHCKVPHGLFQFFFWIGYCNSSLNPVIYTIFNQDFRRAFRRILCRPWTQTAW
Description: PDSP Primary Binding target: ADRA2B - Compounds are tested at 10 uM concentration, plate are incubated at room temperature in the dark for 90 minutes. Reaction are stopped by vacuum filtration onto 0.3% polyethyleneimine soaked filter mats using Filtermate harvester. Scintilation cocktail is then melted onto microwave-dried filters on a hot plate and the radio activity is counted in Microbia counter.

Test [8] deals with 5-hydroxytryptamine receptor 2B (Homo sapiens) (UniProt P41595).
5-hydroxytryptamine receptor 2B (Homo sapiens), sequence (P41595 whole entry): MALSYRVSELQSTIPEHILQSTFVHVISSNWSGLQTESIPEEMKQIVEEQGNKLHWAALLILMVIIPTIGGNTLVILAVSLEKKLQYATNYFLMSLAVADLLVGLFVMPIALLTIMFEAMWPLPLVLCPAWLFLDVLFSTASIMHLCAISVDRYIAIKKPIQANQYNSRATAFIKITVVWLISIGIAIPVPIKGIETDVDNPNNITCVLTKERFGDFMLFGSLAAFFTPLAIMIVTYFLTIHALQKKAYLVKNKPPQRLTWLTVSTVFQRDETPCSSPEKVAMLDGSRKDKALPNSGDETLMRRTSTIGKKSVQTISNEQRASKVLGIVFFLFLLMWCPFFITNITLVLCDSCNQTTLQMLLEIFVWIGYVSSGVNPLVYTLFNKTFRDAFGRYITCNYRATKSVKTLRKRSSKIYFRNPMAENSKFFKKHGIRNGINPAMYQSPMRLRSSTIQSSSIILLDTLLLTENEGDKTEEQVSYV
Description: PDSP Primary Binding target: HTR2B - Compounds are tested at 10 uM concentration, plate are incubated at room temperature in the dark for 90 minutes. Reaction are stopped by vacuum filtration onto 0.3% polyethyleneimine soaked filter mats using Filtermate harvester. Scintilation cocktail is then melted onto microwave-dried filters on a hot plate and the radio activity is counted in Microbia counter.
The target of test [9] is T2, Muscarinic acetylcholine receptor M1 (Homo sapiens) (UniProt P11229).
T2 sequence (whole entry): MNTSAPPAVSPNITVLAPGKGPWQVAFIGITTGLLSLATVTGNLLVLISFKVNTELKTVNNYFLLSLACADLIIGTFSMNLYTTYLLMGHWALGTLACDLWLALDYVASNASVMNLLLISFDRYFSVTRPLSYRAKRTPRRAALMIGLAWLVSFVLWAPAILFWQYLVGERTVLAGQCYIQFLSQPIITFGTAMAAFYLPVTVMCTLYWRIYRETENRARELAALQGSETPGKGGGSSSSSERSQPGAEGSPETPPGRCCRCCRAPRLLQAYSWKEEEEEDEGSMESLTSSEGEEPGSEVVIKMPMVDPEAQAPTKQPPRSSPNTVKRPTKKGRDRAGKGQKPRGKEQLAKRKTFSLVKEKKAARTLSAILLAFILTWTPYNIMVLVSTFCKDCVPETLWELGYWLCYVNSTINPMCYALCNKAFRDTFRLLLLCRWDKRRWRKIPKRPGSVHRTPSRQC
Description: PDSP Primary Binding target: CHRM1 - Compounds are tested at 10 uM concentration, plate are incubated at room temperature in the dark for 90 minutes. Reaction are stopped by vacuum filtration onto 0.3% polyethyleneimine soaked filter mats using Filtermate harvester. Scintilation cocktail is then melted onto microwave-dried filters on a hot plate and the radio activity is counted in Microbia counter.

In test [10] the target is Sigma non-opioid intracellular receptor 1 (Homo sapiens) (UniProt Q99720).
Sigma non-opioid intracellular receptor 1 (Homo sapiens), sequence (Q99720 whole entry): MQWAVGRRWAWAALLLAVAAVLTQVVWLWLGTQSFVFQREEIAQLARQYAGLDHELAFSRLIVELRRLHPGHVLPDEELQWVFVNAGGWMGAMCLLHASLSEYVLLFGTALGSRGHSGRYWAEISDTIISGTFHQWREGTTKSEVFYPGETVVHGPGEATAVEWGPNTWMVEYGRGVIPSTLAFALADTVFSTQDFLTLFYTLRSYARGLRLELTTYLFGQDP
Description: PDSP Primary Binding target: SIGMAR1 - Compounds are tested at 10 uM concentration, plate are incubated at room temperature in the dark for 90 minutes. Reaction are stopped by vacuum filtration onto 0.3% polyethyleneimine soaked filter mats using Filtermate harvester. Scintilation cocktail is then melted onto microwave-dried filters on a hot plate and the radio activity is counted in Microbia counter.
In test [11] the target is T3, 5-hydroxytryptamine receptor 2C (Homo sapiens) (UniProt P28335).
T3 sequence (whole entry): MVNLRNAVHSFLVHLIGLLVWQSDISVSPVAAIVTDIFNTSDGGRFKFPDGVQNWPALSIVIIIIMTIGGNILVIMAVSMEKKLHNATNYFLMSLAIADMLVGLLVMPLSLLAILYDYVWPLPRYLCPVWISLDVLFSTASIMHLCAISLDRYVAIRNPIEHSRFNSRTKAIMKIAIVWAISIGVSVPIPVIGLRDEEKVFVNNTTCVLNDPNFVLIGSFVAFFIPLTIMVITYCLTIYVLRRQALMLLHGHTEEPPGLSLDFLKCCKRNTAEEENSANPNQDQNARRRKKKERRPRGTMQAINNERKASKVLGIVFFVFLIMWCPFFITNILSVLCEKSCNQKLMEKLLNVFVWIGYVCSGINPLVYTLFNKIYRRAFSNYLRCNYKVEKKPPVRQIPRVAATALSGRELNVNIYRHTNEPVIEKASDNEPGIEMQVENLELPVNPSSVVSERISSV
Description: PDSP Primary Binding target: HTR2C - Compounds are tested at 10 uM concentration, plate are incubated at room temperature in the dark for 90 minutes. Reaction are stopped by vacuum filtration onto 0.3% polyethyleneimine soaked filter mats using Filtermate harvester. Scintilation cocktail is then melted onto microwave-dried filters on a hot plate and the radio activity is counted in Microbia counter.

For test [12], the target named is Translocator protein (Homo sapiens) (UniProt P30536).
Translocator protein (Homo sapiens), sequence (P30536 whole entry): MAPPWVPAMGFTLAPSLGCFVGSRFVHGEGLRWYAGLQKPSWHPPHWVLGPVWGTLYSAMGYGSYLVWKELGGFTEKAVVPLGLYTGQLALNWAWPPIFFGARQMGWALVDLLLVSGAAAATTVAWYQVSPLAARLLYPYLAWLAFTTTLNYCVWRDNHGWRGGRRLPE
Description: PDSP Primary Binding target: TSPO - Compounds are tested at 10 uM concentration, plate are incubated at room temperature in the dark for 90 minutes. Reaction are stopped by vacuum filtration onto 0.3% polyethyleneimine soaked filter mats using Filtermate harvester. Scintilation cocktail is then melted onto microwave-dried filters on a hot plate and the radio activity is counted in Microbia counter.
In test [13] the target is D(1A) dopamine receptor (Homo sapiens) (UniProt P21728).
D(1A) dopamine receptor (Homo sapiens), sequence (P21728 whole entry): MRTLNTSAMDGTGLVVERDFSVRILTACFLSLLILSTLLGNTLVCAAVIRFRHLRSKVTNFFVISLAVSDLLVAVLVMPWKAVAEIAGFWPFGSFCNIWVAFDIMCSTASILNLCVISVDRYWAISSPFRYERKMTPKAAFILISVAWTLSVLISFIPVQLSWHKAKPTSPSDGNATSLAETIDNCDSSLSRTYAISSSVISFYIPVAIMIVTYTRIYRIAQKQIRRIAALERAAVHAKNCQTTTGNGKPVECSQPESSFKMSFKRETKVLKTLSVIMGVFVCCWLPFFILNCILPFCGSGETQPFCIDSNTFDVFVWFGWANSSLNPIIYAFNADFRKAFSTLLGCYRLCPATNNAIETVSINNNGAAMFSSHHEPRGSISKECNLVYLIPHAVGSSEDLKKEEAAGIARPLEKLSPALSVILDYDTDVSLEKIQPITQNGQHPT
Description: PDSP Primary Binding target: DRD1 - Compounds are tested at 10 uM concentration, plate are incubated at room temperature in the dark for 90 minutes. Reaction are stopped by vacuum filtration onto 0.3% polyethyleneimine soaked filter mats using Filtermate harvester. Scintilation cocktail is then melted onto microwave-dried filters on a hot plate and the radio activity is counted in Microbia counter.
Test [14] has as its target Sodium-dependent dopamine transporter (Homo sapiens) (UniProt Q01959).
Description: PDSP Primary Binding target: SLC6A3 - Compounds are tested at 10 uM concentration, plate are incubated at room temperature in the dark for 90 minutes. Reaction are stopped by vacuum filtration onto 0.3% polyethyleneimine soaked filter mats using Filtermate harvester. Scintilation cocktail is then melted onto microwave-dried filters on a hot plate and the radio activity is counted in Microbia counter.
Test [15] deals with 5-hydroxytryptamine receptor 1D (Homo sapiens) (UniProt P28221).
5-hydroxytryptamine receptor 1D (Homo sapiens), sequence (P28221 whole entry): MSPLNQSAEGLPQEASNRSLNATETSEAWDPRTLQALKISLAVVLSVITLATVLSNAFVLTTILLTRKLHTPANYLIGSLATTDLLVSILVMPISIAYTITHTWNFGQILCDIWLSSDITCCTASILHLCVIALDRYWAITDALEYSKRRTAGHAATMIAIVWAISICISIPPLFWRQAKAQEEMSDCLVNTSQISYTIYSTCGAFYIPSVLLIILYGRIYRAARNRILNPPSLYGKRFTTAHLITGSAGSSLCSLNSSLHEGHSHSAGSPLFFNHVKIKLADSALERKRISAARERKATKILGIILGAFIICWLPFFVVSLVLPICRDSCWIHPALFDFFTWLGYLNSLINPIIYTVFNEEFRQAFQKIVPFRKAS
Description: PDSP Primary Binding target: HTR1D - Compounds are tested at 10 uM concentration, plate are incubated at room temperature in the dark for 90 minutes. Reaction are stopped by vacuum filtration onto 0.3% polyethyleneimine soaked filter mats using Filtermate harvester. Scintilation cocktail is then melted onto microwave-dried filters on a hot plate and the radio activity is counted in Microbia counter.
For test [16], the target named is Kappa-type opioid receptor (Homo sapiens) (UniProt P41145).
Description: PDSP Primary Binding target: OPRK1 - Compounds are tested at 10 uM concentration, plate are incubated at room temperature in the dark for 90 minutes. Reaction are stopped by vacuum filtration onto 0.3% polyethyleneimine soaked filter mats using Filtermate harvester. Scintilation cocktail is then melted onto microwave-dried filters on a hot plate and the radio activity is counted in Microbia counter.
Test [17] deals with D(1B) dopamine receptor (Homo sapiens) (UniProt P21918).
D(1B) dopamine receptor (Homo sapiens), sequence (P21918 whole entry): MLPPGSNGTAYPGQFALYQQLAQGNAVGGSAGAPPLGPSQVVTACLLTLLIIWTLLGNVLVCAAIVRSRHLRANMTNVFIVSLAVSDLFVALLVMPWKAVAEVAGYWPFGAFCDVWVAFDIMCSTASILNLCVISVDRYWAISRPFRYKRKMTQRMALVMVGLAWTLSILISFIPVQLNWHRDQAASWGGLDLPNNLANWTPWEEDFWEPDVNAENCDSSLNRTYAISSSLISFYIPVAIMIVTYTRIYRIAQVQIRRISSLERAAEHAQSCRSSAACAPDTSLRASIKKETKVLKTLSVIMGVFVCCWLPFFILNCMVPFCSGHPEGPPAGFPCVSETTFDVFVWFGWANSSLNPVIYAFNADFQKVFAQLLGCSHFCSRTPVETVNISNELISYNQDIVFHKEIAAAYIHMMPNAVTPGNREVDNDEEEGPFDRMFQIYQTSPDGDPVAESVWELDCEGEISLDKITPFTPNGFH
Description: PDSP Primary Binding target: DRD5 - Compounds are tested at 10 uM concentration, plate are incubated at room temperature in the dark for 90 minutes. Reaction are stopped by vacuum filtration onto 0.3% polyethyleneimine soaked filter mats using Filtermate harvester. Scintilation cocktail is then melted onto microwave-dried filters on a hot plate and the radio activity is counted in Microbia counter.
The target of test [18] is T4, Muscarinic acetylcholine receptor M5 (Homo sapiens) (UniProt P08912).
T4 sequence (whole entry): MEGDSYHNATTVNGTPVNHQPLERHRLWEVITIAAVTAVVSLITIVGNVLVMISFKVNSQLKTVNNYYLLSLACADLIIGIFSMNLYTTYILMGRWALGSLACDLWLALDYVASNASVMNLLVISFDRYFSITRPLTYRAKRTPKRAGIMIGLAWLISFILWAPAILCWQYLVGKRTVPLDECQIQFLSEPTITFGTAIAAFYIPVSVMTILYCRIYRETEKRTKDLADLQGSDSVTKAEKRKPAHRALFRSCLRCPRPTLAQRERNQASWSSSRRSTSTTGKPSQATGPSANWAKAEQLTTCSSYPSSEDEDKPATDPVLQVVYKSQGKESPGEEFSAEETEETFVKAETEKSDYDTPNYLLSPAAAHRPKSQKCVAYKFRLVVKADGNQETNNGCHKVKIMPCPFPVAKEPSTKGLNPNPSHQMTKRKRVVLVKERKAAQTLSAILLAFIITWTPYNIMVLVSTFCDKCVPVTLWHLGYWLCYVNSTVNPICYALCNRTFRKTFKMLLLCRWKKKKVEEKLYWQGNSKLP
Description: PDSP Primary Binding target: CHRM5 - Compounds are tested at 10 uM concentration, plate are incubated at room temperature in the dark for 90 minutes. Reaction are stopped by vacuum filtration onto 0.3% polyethyleneimine soaked filter mats using Filtermate harvester. Scintilation cocktail is then melted onto microwave-dried filters on a hot plate and the radio activity is counted in Microbia counter.

Sodium-dependent dopamine transporter (Homo sapiens), sequence (Q01959 whole entry): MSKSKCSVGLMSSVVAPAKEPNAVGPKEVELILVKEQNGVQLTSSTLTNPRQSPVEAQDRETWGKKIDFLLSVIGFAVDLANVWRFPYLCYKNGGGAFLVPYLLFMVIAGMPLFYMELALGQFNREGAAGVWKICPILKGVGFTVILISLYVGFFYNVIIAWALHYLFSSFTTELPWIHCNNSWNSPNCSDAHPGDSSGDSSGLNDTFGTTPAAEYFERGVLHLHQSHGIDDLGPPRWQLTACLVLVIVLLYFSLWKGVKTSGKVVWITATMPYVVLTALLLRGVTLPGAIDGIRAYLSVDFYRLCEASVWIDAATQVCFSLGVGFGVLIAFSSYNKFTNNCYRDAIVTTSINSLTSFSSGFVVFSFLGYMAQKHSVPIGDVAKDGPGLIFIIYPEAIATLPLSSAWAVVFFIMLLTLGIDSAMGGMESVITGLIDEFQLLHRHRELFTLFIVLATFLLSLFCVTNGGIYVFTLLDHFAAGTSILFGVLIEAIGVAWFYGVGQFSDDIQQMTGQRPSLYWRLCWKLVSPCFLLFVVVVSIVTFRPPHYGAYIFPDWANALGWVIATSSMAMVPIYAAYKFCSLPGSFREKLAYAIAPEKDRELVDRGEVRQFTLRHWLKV
5-hydroxytryptamine receptor 1B (Homo sapiens), sequence (P28222 whole entry): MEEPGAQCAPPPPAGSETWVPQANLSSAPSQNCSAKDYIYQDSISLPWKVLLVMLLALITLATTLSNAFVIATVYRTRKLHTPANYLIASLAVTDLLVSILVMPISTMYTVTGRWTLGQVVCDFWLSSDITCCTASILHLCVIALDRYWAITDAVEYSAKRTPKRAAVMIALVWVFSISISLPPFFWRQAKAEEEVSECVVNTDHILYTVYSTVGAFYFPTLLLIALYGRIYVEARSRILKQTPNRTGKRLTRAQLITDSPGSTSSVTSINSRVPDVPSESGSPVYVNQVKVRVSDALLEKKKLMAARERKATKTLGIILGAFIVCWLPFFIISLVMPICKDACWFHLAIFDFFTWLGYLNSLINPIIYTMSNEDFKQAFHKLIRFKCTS
Mu-type opioid receptor (Homo sapiens), sequence (P35372 whole entry): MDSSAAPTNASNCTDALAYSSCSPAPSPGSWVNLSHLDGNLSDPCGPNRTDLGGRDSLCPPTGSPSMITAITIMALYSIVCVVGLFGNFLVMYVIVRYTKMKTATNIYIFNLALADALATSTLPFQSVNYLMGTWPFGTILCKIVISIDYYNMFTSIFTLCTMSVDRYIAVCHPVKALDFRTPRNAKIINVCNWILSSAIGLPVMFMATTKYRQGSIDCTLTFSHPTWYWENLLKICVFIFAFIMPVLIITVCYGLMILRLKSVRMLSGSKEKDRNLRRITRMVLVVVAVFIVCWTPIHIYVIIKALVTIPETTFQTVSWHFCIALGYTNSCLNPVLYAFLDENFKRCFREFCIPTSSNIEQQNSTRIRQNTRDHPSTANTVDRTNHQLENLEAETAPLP

Take `COc1cc2c(CCNC(C)=O)c[nH]c2cc1Cl`: the inhibition was -1.77% in test [1]; -7.31% in [2]; 25.2% in test [3]; -5.25% in test [4]; 3.89% in test [5]; -6.6% in test [6]. Also, the inhibition is 9.08% in [7]; 57.2% in test [8]; -4.88% in [9]; 5.27% in test [10]; 18.8% in test [11]; 20.1% in test [12]. Besides, the inhibition in test [13] was 5.8%; in test [14] it was 14.1%; in [15], 45.4%; in test [16], -6.29%.

As to `Cc1cccc(NC(=O)N[C@@H]2N=C(c3ccccc3)c3ccccc3N(C)C2=O)c1`, the inhibition in test [1] is 5.79%; in [2] it was 14.2%; in [3], 16.2%; in test [4], 15.4%; in [5] it was -4.38%; in [6] it was 53.4%. For the same molecule, the inhibition in test [7] was 7.07%; in test [8], 63%; in test [10] it was 20.8%; in test [11], -0.72%; in [12] it was 27.5%; in test [17], 0.34%. The inhibition in [14] was 44.1%; in [15], 24.6%; in [16], 22.5%.

Consider `C=CCN1C[C@H](C)N([C@H](c2ccc(C(=O)N(CC)CC)cc2)c2cccc(O)c2)C[C@H]1C`, for which the inhibition is 98.5% in test [1]; -2.85% in [2]; 27.1% in test [3]; 46.7% in test [4]; 3.05% in test [5]; 2.09% in [6]. Also, the inhibition in test [7] was 9.01%; in [8] it was 30%; in test [9], 4.09%; in test [10], 87.3%; in [11], 0.93%; in test [12], 20.7%. Also, the inhibition in test [13] was 2.02%; in [14], 26.9%; in test [15], 31.4%; in test [16], 99.8%.

On to `CC(C)NCC(O)COc1ccc(CCOCC2CC2)cc1` (stereo unspecified), for which the inhibition was 3.09% in test [1]; 3.26% in test [2]; 10.4% in test [3]; 76.2% in test [4]; 8.23% in test [6]; 24.5% in test [7]. The inhibition is 32.1% in test [8]; 0.88% in test [9]; 91.7% in test [10]; 4.48% in test [12]; 6.71% in [17]; 1.75% in test [13]. In addition, the inhibition was 0.46% in test [18], 27.9% in test [14], 5.07% in test [15] and 20.5% in [16].

`CNC[C@H](O)c1cccc(O)c1`: the inhibition in [1] is 2.89%; in test [2], -2.53%; in [3], 15.9%; in [4] it was 24.9%; in test [5], -1.97%; in test [6], 25.3%. For the same molecule, the inhibition was 21.3% in [7]; 20.3% in test [8]; 7.7% in [9]; 16.3% in [11]; 11.8% in test [12]; 11.1% in test [13]. In addition, the inhibition is -2.82% in test [18] and 48.1% in test [15].

Turning to `CC(C)(C)NC[C@H](O)COc1nsnc1N1CCOCC1`, the inhibition in test [1] is -1.47%; in test [2] it was 6.14%; in test [3] it was 17.9%; in test [4], 10.5%; in test [8], 16.9%; in test [10], 90.3%. The inhibition is -1.62% in [11]; 0.37% in test [12]; 6.52% in test [17]; 2.12% in test [18]; 31.4% in [14]; 19.4% in test [15]. Also, the inhibition in [16] is 3.37%.

Consider `C[C@@H](N)Cc1c[nH]cn1`, for which the inhibition is -4.88% in test [2]; 5.1% in [3]; 20.2% in test [4]; 10.2% in test [5]; -2.41% in [6]; 9.47% in test [7]. The inhibition in test [8] was 35.1%; in [9] it was 2.87%; in test [10] it was 20.9%; in [11] it was 5.48%; in test [17] it was 24.8%; in test [13], 14.2%. Also, the inhibition is -5.67% in [18], 3.36% in test [14], 6.42% in test [15] and -2.45% in test [16].

For the molecule `CN1CC(=O)N=C1NC(=O)Nc1cccc(Cl)c1`, the inhibition was 5.37% in test [1]; -2.54% in [2]; 31.2% in test [3]; 0.02% in test [4]; -8.89% in [5]; 1.19% in test [6]. In addition, the inhibition in [7] was -6.21%; in test [8], 48.7%; in [10], 3.26%; in test [11], 5.25%; in test [12], -8.11%; in [17], 18.3%. Moreover, the inhibition was 14.5% in test [13]; 6.05% in test [18]; 0.92% in test [14]; 4.68% in test [15]; 2.28% in test [16].

In the case of `CC(C)NCC(O)COc1cccc2ccccc12` (stereo unspecified), the inhibition in test [1] is 17.4%; in test [2], 17.7%; in [3], 9.59%; in [4], 90%; in test [8] it was 86.3%; in test [10] it was 54.7%. Moreover, the inhibition in test [11] was 68%; in [17], 10.2%; in test [13] it was 4.93%; in test [18], 6.07%; in test [14] it was 38.4%; in [15] it was 87.2%. In addition, the inhibition in [16] was 16.1%.
